Reference: patent US20250332173A1, “COMPOUNDS AND METHODS FOR MODULATING NUCLEIC ACID SPLICING” (REMIX THERAPEUTICS INC., priority 2021, published 2025)
Read-outs that look alike come from different tables or passages of the source.

Tests used:
Target C = assay: RT-qPCR splicing assay panel, Target C canonical junction (CJ) mRNA; type: cell-based, human; details: Homo sapiens; Table 5 panel; canonical junction qPCR; compound concentration having 50% response in CJ decrease; read-out: Target C IC50 (decrease in CJ mRNA levels)
How it was run: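 A673 or K562 cells were treated for 24 h at 37 °C with compound in 11-point 3-fold dilution (top 10 uM final, DMSO ≤0.25%). Lysates then went to one-step RT-qPCR measuring canonical-junction mRNA, normalized to GAPDH, GUSB or PPIA.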

MYB mRNA = assay: RT-qPCR splicing assay, MYB canonical junction (CJ) and alternative junction (AJ) mRNA; type: cell-based, human; details: Homo sapiens; for AC50: increase in MYB alternative junction (AJ) mRNA, read-out: MYB AJ AC50
How it was run: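 A673 cells (normalized to PPIA) or K562 cells (normalized to GAPDH or GUSB) were treated 24 h at 37 °C with an 11-point 3-fold dilution series, top 10 uM, DMSO ≤0.25%. Cell lysates went to one-step RT-qPCR measuring canonical- and alternative-junction MYB or HTT transcripts.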

[1] = Table 5 panel, canonical junction qPCR, compound concentration having 50% response in CJ decrease, read-out: MYB IC50 (decrease in CJ mRNA levels)
[2] = decrease in MYB canonical junction (CJ) mRNA, RT-qPCR, read-out: MYB CJ IC50

Compound	IC50 (Target C) [µM]	IC50 (MYB mRNA; [1]) [µM]	IC50 (MYB mRNA; [2]) [µM]	AC50 (MYB mRNA; RT-qPCR) [µM]
CNc1cc(-c2cn3cc(C)nc3c(C)n2)cc2ncn(C3CCNCC3)c(=O)c12 [Compound 360, 7-{2,8-dimethylimidazo[1,2-a]pyrazine-6-yl}-5-(methylamino)-3-(piperidin-4-yl)quinazolin-4-one]	> 10	1 to 10	> 10	1 to 10
Cc1cn2nc(-c3cc(O)c4c(=O)n(C5CCNC5)cnc4c3)cc(C)c2n1 (stereo not drawn) [Compound 362, 7-{2,8-dimethylimidazo[1,2-b]pyridazin-6-yl}-5-hydroxy-3-(pyrrolidin-3-yl)quinazolin-4-one]	> 10	1 to 10	1 to 10	1 to 10
CNc1cc(-c2cc(C#N)c3nc(C)cn3c2)cc2ncn(C3CCNCC3)c(=O)c12 [Compound 363, 2-methyl-6-[5-(methylamino)-4-oxo-3-(piperidin-4-yl)quinazolin-7-yl]imidazo[1,2-a]pyridine-8-carbonitrile]	> 10	> 10	> 10	> 10

Further lines, with some results ahead:

IC50 (Target C) [µM]	IC50 (MYB mRNA; [1]) [µM]	IC50 (MYB mRNA; [2]) [µM]	Compound	AC50 (MYB mRNA; RT-qPCR) [µM]
> 10	1 to 10	1 to 10	CNc1cc(-c2cc(F)c3nc(C)cn3c2)cc2ncn(C3CCNCC3)c(=O)c12 [Compound 358, 7-{8-fluoro-2-methylimidazo[1,2-a]pyridine-6-yl}-5-(methylamino)-3-(piperidin-4-yl)quinazolin-4-one]	1 to 10
> 10	< 0.1	1 to 10	CNc1cc(-c2cc(C)c3nc(C)cn3n2)cc2ncn(C3CCNCC3)c(=O)c12 [Compound 359, 7-{2,8-dimethylimidazo[1,2-b]pyridazin-6-yl}-5-(methylamino)-3-(piperidin-4-yl)quinazolin-4-one]	< 0.1
0.1 to 1	< 0.1	< 0.1	Cc1cc(-c2cc(F)c3c(=O)n(C4CCNC5(CC5)C4)cnc3c2)nc2cn(C)nc12 (stereo not drawn) [Compound 361, 3-{4-azaspiro[2.5]octan-7-yl}-7-{2,7-dimethylpyrazolo[4,3-b]pyridin-5-yl}-5-fluoroquinazolin-4-one]	< 0.1
